Test results published in ChEMBL document CHEMBL4507268 (2021).

Tests used:
Settings in all cases: Compound concentration 1.0 uM
[1] = target: T1, Activin receptor type-1 (Homo sapiens) (UniProt Q04771)
T1 sequence (whole entry): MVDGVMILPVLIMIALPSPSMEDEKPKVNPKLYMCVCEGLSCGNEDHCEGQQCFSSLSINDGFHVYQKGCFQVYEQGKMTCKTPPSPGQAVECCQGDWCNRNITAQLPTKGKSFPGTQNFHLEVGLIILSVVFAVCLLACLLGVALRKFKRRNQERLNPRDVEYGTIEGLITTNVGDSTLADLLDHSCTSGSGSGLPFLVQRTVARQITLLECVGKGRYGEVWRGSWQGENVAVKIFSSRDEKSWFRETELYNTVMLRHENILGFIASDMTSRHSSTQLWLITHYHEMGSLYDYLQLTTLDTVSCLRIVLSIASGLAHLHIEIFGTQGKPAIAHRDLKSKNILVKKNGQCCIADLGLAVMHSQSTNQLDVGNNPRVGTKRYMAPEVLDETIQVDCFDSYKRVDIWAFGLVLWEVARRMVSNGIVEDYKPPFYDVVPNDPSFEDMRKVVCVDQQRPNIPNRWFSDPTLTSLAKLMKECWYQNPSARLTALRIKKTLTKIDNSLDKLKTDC

[2] = target: T2, Serine/threonine-protein kinase 17A (Homo sapiens) (UniProt Q9UEE5)
T2 sequence (whole entry): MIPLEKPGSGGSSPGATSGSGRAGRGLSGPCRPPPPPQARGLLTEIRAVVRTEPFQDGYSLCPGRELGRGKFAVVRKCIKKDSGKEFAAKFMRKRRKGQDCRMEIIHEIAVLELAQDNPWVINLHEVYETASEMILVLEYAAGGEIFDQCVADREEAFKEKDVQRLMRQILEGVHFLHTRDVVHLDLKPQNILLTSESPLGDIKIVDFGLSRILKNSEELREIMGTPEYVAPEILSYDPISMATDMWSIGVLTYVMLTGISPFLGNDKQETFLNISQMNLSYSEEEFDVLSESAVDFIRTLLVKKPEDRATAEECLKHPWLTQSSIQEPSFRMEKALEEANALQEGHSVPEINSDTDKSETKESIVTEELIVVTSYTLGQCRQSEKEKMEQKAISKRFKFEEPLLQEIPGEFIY

[3] = target: Dual specificity tyrosine-phosphorylation-regulated kinase 1A (Homo sapiens) (UniProt Q13627)
[4] = target: T3, Ephrin type-B receptor 3 (Homo sapiens) (UniProt P54753)
T3 sequence (whole entry): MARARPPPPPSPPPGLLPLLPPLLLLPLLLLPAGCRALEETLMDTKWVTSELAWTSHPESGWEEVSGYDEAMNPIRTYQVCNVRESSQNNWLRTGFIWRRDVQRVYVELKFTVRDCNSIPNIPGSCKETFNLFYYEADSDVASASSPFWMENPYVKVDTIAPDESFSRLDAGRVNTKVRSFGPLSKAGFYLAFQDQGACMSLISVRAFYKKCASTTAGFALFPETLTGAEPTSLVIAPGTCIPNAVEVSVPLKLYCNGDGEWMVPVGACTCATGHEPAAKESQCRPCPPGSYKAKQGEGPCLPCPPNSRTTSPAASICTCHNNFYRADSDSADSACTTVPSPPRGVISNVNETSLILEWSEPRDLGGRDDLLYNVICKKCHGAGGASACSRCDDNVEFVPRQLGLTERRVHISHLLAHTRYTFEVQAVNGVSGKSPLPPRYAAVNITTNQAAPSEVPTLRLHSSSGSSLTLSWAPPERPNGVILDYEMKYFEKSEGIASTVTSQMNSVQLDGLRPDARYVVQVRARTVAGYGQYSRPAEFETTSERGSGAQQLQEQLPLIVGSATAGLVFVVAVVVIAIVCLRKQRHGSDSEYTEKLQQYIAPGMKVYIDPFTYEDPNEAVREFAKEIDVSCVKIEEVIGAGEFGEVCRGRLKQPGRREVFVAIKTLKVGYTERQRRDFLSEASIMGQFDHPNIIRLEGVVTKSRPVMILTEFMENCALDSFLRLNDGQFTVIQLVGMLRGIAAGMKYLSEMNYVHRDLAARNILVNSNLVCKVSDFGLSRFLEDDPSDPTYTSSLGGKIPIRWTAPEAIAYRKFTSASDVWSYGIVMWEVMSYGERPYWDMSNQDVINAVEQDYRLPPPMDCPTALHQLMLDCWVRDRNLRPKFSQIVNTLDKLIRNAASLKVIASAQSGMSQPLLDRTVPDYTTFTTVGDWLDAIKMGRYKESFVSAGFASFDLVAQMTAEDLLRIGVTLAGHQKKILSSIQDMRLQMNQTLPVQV

[5] = target: Tyrosine-protein kinase Fes/Fps (Homo sapiens) (UniProt P07332)
[6] = target: eIF-2-alpha kinase GCN2 (Homo sapiens) (UniProt Q9P2K8)
[7] = target: Serine/threonine-protein kinase PLK3 (Homo sapiens) (UniProt Q9H4B4)
[8] = target: Serine/threonine-protein kinase N2 (Homo sapiens) (UniProt Q16513)
[9] = target: Proto-oncogene tyrosine-protein kinase receptor Ret (Homo sapiens) (UniProt P07949)
[10] = target: Serine/threonine-protein kinase 32A (Homo sapiens) (UniProt Q8WU08)
[11] = target: T4, Testis-specific serine/threonine-protein kinase 3 (Homo sapiens) (UniProt Q96PN8)
T4 sequence (whole entry): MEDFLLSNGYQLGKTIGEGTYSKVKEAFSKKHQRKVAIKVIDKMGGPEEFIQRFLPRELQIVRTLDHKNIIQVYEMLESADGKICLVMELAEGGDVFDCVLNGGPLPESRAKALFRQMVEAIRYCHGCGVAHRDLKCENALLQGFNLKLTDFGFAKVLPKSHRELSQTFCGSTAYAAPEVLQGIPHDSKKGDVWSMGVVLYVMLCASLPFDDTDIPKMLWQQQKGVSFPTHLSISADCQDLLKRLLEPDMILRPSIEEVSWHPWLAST

[12] = target: Phosphatidylinositol 4-phosphate 5-kinase type-1 gamma (Homo sapiens) (UniProt O60331)

Measured: % residual kinase activity

Sequence of Serine/threonine-protein kinase 32A (Homo sapiens) (Q8WU08 whole entry): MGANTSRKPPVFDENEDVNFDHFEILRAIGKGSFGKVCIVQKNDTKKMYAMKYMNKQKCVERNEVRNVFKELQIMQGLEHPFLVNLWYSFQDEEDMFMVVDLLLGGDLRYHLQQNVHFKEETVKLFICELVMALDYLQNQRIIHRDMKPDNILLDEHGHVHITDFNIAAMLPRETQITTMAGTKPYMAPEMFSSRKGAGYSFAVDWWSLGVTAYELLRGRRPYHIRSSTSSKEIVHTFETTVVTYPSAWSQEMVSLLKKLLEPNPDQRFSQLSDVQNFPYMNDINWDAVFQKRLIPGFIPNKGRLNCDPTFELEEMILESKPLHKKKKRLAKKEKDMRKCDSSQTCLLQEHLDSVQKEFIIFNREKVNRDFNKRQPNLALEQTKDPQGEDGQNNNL
Sequence of eIF-2-alpha kinase GCN2 (Homo sapiens) (Q9P2K8 whole entry): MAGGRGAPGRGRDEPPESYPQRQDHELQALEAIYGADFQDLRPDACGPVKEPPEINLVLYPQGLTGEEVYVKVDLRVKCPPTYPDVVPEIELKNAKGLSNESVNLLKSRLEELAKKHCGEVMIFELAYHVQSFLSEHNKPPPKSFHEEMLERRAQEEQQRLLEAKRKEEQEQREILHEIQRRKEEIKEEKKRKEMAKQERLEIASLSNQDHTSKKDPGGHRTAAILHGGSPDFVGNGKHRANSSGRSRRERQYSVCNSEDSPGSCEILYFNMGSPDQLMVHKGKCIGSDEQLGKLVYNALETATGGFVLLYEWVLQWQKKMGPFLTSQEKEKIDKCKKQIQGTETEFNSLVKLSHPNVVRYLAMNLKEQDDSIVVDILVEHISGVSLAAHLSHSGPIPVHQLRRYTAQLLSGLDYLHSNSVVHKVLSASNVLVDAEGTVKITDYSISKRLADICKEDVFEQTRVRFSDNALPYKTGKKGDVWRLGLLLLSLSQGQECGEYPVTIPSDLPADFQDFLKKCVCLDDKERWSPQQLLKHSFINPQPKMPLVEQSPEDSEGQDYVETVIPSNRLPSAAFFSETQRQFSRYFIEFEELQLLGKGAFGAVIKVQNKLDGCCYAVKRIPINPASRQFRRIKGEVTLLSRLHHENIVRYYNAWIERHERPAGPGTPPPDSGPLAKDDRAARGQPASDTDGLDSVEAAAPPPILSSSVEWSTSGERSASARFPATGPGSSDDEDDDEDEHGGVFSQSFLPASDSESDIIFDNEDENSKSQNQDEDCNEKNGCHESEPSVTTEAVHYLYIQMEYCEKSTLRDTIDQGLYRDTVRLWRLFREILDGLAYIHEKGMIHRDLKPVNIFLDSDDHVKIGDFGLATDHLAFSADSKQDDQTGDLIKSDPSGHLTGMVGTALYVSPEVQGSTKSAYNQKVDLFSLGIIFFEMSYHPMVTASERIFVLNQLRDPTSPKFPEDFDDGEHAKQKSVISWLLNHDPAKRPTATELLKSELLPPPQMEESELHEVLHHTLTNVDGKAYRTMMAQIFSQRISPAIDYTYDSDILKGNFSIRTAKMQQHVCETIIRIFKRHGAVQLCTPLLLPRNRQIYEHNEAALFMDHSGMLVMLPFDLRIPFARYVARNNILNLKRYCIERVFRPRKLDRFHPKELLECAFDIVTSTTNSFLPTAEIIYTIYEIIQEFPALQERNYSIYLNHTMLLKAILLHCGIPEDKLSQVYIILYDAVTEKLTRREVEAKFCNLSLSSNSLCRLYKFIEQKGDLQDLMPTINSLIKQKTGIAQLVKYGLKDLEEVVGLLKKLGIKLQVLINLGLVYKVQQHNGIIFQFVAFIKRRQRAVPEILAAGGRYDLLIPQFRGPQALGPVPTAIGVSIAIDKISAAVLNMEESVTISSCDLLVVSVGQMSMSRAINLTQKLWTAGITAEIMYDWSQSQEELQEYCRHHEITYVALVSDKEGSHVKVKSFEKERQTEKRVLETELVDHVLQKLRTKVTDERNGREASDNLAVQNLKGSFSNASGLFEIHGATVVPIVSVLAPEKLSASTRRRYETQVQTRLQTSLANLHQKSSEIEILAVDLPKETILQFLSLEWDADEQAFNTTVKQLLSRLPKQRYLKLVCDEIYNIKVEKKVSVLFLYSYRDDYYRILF
Sequence of Proto-oncogene tyrosine-protein kinase receptor Ret (Homo sapiens) (P07949 whole entry): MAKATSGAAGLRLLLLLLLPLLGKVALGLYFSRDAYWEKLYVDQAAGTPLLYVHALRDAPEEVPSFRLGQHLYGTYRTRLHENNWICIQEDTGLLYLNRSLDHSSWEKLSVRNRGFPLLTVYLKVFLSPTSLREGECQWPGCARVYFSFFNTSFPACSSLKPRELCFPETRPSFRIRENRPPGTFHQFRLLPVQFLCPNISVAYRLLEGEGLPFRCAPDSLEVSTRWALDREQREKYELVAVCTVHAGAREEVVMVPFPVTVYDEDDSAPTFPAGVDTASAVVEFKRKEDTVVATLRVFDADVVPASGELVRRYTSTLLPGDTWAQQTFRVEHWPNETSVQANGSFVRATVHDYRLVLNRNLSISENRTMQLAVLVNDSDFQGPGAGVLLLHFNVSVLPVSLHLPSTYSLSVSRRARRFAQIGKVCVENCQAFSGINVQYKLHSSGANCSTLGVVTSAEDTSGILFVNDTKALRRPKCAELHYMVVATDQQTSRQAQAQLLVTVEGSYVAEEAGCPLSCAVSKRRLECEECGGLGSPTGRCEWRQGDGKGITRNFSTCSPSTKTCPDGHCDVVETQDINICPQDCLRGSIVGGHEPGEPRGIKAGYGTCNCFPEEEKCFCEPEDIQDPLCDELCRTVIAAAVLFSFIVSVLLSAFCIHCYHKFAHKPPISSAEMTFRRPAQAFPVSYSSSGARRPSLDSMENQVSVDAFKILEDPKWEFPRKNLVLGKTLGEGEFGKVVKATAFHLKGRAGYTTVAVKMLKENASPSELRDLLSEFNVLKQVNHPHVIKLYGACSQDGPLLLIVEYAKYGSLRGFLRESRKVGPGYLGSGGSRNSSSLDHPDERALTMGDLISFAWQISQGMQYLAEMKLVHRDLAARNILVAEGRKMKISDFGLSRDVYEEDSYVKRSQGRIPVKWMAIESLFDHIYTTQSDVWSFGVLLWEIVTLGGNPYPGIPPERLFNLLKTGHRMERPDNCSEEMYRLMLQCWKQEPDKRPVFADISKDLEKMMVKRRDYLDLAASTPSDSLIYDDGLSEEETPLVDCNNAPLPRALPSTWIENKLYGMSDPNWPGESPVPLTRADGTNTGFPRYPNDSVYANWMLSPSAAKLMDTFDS
Sequence of Serine/threonine-protein kinase PLK3 (Homo sapiens) (Q9H4B4 whole entry, looked up): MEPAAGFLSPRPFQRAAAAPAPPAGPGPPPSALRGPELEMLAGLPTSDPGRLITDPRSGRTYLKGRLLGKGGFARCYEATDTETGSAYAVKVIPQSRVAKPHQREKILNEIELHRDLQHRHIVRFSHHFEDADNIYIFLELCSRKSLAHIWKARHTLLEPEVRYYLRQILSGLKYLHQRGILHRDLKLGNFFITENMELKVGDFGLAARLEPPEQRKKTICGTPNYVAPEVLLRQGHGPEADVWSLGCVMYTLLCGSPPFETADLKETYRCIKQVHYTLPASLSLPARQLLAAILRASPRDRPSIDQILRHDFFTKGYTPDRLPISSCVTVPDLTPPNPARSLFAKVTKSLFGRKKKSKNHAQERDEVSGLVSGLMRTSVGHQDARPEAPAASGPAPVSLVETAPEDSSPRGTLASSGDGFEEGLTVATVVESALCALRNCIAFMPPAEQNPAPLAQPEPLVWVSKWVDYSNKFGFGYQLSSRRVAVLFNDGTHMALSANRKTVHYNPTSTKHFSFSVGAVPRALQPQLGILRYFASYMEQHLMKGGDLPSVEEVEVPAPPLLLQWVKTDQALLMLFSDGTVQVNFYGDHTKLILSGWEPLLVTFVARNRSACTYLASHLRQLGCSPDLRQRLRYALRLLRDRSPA
Sequence of Serine/threonine-protein kinase N2 (Homo sapiens) (Q16513 whole entry, looked up): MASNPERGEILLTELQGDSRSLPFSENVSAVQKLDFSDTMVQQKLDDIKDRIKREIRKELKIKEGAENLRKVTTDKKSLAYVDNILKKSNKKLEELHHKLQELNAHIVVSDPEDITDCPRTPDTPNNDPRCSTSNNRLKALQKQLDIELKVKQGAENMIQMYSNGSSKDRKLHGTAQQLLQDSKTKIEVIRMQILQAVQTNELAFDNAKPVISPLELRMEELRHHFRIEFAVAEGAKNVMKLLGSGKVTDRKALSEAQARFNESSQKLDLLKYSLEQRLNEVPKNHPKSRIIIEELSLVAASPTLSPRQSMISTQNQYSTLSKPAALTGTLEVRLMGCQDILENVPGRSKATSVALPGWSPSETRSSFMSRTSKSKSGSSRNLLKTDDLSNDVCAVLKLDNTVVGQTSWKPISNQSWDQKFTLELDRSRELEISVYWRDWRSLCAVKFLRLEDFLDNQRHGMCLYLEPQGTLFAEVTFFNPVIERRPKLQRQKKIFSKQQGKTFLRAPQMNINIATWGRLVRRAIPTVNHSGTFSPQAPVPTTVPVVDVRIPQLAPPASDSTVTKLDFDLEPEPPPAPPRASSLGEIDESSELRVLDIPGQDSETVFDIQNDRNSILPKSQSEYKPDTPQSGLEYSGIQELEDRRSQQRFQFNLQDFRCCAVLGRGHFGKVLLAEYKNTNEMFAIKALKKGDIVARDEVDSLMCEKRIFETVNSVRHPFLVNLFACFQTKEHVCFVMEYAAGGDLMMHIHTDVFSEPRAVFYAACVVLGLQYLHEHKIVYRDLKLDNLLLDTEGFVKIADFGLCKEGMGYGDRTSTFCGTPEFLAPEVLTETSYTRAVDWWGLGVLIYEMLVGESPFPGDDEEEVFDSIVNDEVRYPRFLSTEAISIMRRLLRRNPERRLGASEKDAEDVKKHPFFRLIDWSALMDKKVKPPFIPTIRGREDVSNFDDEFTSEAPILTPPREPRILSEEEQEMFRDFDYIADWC

CN1CCN(c2cnc3c(C4CCN(C(=O)c5ccc(OC(F)(F)F)cc5N)CC4)ncnc3c2)CC1 [BAY-885]
inactive: [1] 98% | [2] 85% | [3] 112% | [4] 42% | [5] 108% | [6] 98% | [7] 107% | [8] 104% | [9] 122% | [10] 100% | [11] 108% | [12] 93%
